Results taken from patent publication US9908897B2, “Spirocyclic derivatives” (CHRONOS THERAPEUTICS LIMITED, priority 2014, dated 2018).

Assays:
[1] = target: human dopamine transporter (DAT) (Homo sapiens (Human), UniProt Q01959); experiment: Scintillation Proximity Assay (SPA) competition binding, human DAT; conditions: recombinant hDAT-CHO membranes, [3H]WIN-35,428
Procedure, shortened: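 SPA binding on membranes from CHO cells stably expressing human DAT, with 5 nM [3H]WIN-35,428, WGA-PVT beads and 0.02% BSA in HEPES/NaCl/KCl buffer pH 7.4.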

[2] = target: human norepinephrine transporter (NET) (Homo sapiens (Human), UniProt P23975); experiment: Scintillation Proximity Assay (SPA) competition binding, human NET; conditions: recombinant hNET-CHO membranes, [3H]nisoxetine
[3] = target: human serotonin transporter (SERT) (Homo sapiens (Human), UniProt P31645); experiment: Scintillation Proximity Assay (SPA) competition binding, human SERT; conditions: recombinant hSERT-CHO membranes, [3H]citalopram
[4] = target: human ERG potassium channel (hERG) (Homo sapiens (Human), UniProt Q12809); experiment: hERG tail current recording, Rapid ICE automated patch-clamp; format: cell-based; conditions: HEK293 cells stably transfected with hERG
Experimental: Measure of the Effect on hERG Channel by Tail Current Recording Using In Vitro Rapid ICE™
The potency of the compounds of the invention in inhibiting human ERG potassium channel (hERG) tail current is assessed in a recombinant HEK293 cell line stably transfected with hERG cDNA using Rapid ICE™ (Rapid Ion Channel Electrophysiology) assay. Rapid ICE™ is an automated patch-clamp assay utilizing the PatchXpress 7000A system (Molecular Devices Corporation) or the QPatch HTX system (Sophion Bioscience A/S).
Briefly cells are cultivated for 24 to 72 hours before recordings in minimum essential medium supplemented with 10% FBS, 1% non-essential amino acids, 1% sodium pyruvate, 2 mM L-glutamine. The day of the experiment cells are detached with TrypLE and prepared to be loaded on the instrument. For PatchXpress cells are finally resuspended in 150 μl of Extracellular Buffer whereas for QPatch cells are resuspended in 7 ml Serum-Free Media containing 25 mM Hepes and Soybean trypsin inhibitor and immediately placed in the cell storage tank of the machine. The composition of the Extracellular Buffer is (mM): NaCl 137; KCl 4; CaCl2 1.8; MgCl2 1.0; D-glucose 10; N 2 hydroxyethylpiperazine-N′-2-ethanesulfonic acid (HEPES) 10; pH 7.4 with 1 M NaOH. The composition of the pipette solution is (mM): KCl 130; MgCl2 1.0; Ethylene glycol-bis(β-aminoethyl ether)-N,N,N′,N′-tetraacetic acid (EGTA) 5; MgATP 5; HEPES 10; pH 7.2 with 1 M KOH. The voltage protocol includes the following steps: step from −80 mV to −50 mV for 200 ms, +20 mV for 4.8 s, step to −50 mV for 5 s then step to the holding potential of −80 mV. Compounds of the invention are dissolved in DMSO and diluted in Extracellular Buffer to achieve final test concentrations (0.1, 1 and 10 μM) in 0.1% DMSO. The voltage protocol is run and recorded continuously during the experiment. The vehicle, corresponding to 0.1% DMSO in Extracellular Buffer, is then applied for 3 min followed by the test substance in triplicate. The standard combined exposure time is 5 min. The average of tail current amplitude values recorded from 4 sequential voltage pulses is used to calculate for each cell the effect of the test substance by calculating the residual current (% control) compared with vehicle pre-treatment. Data are reported as % inhibition for each concentration tested and IC50 values are estimated using DataXpress or QPatch software. At least two cells are tested, more if results diverge.

Sequence of human dopamine transporter (DAT) (Q01959 whole entry): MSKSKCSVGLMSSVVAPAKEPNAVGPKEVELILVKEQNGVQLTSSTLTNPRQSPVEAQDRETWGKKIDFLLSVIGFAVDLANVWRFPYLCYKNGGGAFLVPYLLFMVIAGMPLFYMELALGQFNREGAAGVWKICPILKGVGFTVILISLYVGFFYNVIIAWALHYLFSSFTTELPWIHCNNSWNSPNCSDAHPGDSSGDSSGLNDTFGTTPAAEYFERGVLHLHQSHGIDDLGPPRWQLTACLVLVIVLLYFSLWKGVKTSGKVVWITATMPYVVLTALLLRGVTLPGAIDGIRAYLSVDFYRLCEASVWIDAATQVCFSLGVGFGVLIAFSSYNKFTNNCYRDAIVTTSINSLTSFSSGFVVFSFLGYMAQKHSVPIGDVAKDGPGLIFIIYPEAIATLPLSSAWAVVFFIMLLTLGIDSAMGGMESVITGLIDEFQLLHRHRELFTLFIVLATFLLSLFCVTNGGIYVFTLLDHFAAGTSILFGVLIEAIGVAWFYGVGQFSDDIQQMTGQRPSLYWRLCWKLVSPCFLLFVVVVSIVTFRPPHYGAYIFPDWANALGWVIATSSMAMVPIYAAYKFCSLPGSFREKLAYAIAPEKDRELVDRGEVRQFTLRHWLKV
Sequence of human serotonin transporter (SERT) (P31645 whole entry): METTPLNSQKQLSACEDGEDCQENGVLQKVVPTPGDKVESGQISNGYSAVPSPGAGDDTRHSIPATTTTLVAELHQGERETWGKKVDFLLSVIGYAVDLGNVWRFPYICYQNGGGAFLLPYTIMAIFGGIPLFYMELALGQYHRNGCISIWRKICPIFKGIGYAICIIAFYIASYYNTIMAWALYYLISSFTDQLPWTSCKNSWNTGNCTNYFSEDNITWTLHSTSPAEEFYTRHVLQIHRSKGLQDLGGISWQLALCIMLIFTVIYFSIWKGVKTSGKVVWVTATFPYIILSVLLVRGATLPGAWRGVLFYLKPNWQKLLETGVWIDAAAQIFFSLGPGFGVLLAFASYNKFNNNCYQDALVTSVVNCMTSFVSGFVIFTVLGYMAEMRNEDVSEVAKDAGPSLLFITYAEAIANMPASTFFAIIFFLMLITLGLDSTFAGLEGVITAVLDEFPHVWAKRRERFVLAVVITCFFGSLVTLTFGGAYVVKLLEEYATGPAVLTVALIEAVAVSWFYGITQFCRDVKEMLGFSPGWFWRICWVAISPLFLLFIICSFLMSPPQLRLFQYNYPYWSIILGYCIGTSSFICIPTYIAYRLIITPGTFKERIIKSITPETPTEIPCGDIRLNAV
Sequence of human ERG potassium channel (hERG) (Q12809 whole entry): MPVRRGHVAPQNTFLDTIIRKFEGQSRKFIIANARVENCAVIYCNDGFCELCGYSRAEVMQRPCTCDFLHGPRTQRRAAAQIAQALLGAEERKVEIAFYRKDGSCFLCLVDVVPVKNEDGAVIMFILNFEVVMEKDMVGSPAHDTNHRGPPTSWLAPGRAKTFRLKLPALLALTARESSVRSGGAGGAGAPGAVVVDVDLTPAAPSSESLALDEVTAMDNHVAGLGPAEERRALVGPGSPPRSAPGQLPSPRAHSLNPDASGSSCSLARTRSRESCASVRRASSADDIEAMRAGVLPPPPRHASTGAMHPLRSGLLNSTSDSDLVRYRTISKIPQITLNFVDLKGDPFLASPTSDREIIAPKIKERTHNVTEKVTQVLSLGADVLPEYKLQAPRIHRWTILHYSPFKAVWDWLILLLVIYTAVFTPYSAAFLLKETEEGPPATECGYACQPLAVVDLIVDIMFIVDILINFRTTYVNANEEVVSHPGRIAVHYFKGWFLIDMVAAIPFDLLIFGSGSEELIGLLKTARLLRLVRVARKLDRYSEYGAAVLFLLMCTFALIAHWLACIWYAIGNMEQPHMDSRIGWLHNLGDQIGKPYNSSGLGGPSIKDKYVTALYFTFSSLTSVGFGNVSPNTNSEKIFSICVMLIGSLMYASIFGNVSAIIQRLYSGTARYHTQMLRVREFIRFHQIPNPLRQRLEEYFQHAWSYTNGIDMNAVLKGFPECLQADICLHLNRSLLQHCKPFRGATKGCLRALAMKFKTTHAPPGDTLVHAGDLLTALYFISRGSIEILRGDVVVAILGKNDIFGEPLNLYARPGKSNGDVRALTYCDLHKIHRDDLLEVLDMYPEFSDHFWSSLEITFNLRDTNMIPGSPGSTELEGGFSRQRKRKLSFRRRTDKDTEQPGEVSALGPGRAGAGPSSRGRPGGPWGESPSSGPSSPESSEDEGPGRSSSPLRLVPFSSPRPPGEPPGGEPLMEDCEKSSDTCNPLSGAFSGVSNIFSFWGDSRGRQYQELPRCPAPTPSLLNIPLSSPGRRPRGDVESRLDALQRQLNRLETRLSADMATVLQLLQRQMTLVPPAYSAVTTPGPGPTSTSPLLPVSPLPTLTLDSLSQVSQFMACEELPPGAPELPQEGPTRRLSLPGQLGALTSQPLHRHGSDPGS
Sequence of human norepinephrine transporter (NET) (P23975 whole entry): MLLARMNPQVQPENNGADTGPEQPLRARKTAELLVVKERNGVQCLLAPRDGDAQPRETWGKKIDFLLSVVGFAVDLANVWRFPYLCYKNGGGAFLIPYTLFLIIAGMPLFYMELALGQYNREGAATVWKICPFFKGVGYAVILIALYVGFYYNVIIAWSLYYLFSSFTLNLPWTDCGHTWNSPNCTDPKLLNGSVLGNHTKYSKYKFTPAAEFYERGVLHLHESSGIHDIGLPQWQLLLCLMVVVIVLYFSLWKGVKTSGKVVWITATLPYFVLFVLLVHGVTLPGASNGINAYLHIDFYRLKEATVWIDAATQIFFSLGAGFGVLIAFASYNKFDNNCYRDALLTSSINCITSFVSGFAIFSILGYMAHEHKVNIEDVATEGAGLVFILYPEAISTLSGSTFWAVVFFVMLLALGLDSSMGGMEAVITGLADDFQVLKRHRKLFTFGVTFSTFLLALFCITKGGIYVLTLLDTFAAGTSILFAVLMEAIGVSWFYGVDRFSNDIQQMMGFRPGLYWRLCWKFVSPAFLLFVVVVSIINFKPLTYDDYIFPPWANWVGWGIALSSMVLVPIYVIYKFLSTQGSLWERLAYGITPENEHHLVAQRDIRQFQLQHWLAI

Compound: Cl.Fc1cccc(Oc2ccnc(N3CCC4(CC3)CNCCO4)n2)c1 [Example 42, 9-[4-(3-fluorophenoxy)pyrimidin-2-yl]-1-oxa-4,9-diazaspiro[5.5]undecane hydrochloride]
- pIC50 DAT [1]: 7.33
- pIC50 NET [2]: 5.64
- pIC50 SERT [3]: 4.69
- pIC50 hERG [4]: 6.4

Compound: Cc1cc(Oc2ccccc2)nc(N2CCC3(CC2)CNCCO3)n1.Cl [Example 43, 9-(4-methyl-6-phenoxypyrimidin-2-yl)-1-oxa-4,9-diazaspiro[5.5]undecane hydrochloride]
- pIC50 DAT [1]: 8.01
- pIC50 NET [2]: 6.11
- pIC50 SERT [3]: 4.42
- pIC50 hERG [4]: 5.7

Compound: Cc1cc(Oc2cccc(F)c2)nc(N2CCC3(CC2)CNCCO3)n1.Cl [Example 44, 9-[4-(3-fluorophenoxy)-6-methylpyrimidin-2-yl]-1-oxa-4,9-diazaspiro[5.5]undecane hydrochloride]
- pIC50 DAT [1]: 8.29
- pIC50 NET [2]: 6.65
- pIC50 SERT [3]: 4.80
- pIC50 hERG [4]: 6.0

Compound: Cc1cccc(Oc2cc(C)nc(N3CCC4(CC3)CNCCO4)n2)c1.Cl [Example 45, 9-[4-methyl-6-(3-methylphenoxy)pyrimidin-2-yl]-1-oxa-4,9-diazaspiro[5.5]undecane hydrochloride]
- pIC50 DAT [1]: 7.59
- pIC50 NET [2]: 5.54
- pIC50 SERT [3]: 4.83
- pIC50 hERG [4]: 5.7

Compound: Cc1cc(Oc2cccc(C#N)c2)nc(N2CCC3(CC2)CNCCO3)n1.Cl [Example 46, 3-[(6-methyl-2-{1-oxa-4,9-diazaspiro[5.5]undecan-9-yl}pyrimidin-4-yl)oxy]benzonitrile hydrochloride]
- pIC50 DAT [1]: 8.03
- pIC50 NET [2]: 5.85
- pIC50 SERT [3]: 6.11
- pIC50 hERG [4]: 6.6

Compound: Cc1cc(Oc2cccc(C(F)(F)F)c2)nc(N2CCC3(CC2)CNCCO3)n1.Cl [Example 48, 9-{4-methyl-6-[3-(trifluoromethyl)phenoxy]pyrimidin-2-yl}-1-oxa-4,9-diazaspiro[5.5]undecane hydrochloride]
- pIC50 DAT [1]: 6.50
- pIC50 NET [2]: 5.48
- pIC50 SERT [3]: 5.58
- pIC50 hERG [4]: 5.6

Compound: COc1cccc(Oc2cc(C)nc(N3CCC4(CC3)CNCCO4)n2)c1.Cl [Example 49, 9-[4-(3-methoxyphenoxy)-6-methylpyrimidin-2-yl]-1-oxa-4,9-diazaspiro[5.5]undecane hydrochloride]
- pIC50 DAT [1]: 6.92
- pIC50 NET [2]: 5.45
- pIC50 SERT [3]: 4.67
- pIC50 hERG [4]: 5.5

Compound: Cl.FC(F)(F)c1cc(Oc2ccccc2)nc(N2CCC3(CC2)CNCCO3)n1 [Example 55, 9-[4-phenoxy-6-(trifluoromethyl)pyrimidin-2-yl]-1-oxa-4,9-diazaspiro[5.5]undecane hydrochloride]
- pIC50 DAT [1]: 8.19
- pIC50 NET [2]: 6.12
- pIC50 SERT [3]: 6.14
- pIC50 hERG [4]: 5.7

Compound: Cl.Fc1ccccc1Oc1cc(C(F)(F)F)nc(N2CCC3(CC2)CNCCO3)n1 [Example 57, 9-[4-(2-fluorophenoxy)-6-(trifluoromethyl)pyrimidin-2-yl]-1-oxa-4,9-diazaspiro[5.5]undecane hydrochloride]
- pIC50 DAT [1]: 7.89
- pIC50 NET [2]: 5.94
- pIC50 SERT [3]: 6.18
- pIC50 hERG [4]: 5.7

Compound: Cl.N#Cc1cccc(Oc2cc(C(F)(F)F)nc(N3CCC4(CC3)CNCCO4)n2)c1 [Example 59, 3-[(2-{1-oxa-4,9-diazaspiro[5.5]undecan-9-yl}-6-(trifluoromethyl)pyrimidin-4-yl)oxy]benzonitrile hydrochloride]
- pIC50 DAT [1]: 8.01
- pIC50 NET [2]: 5.67
- pIC50 SERT [3]: 5.15
- pIC50 hERG [4]: 7.0

Compound: Cl.N#Cc1cc(Oc2cccc(F)c2)nc(N2CCC3(CC2)CNCCO3)n1 [Example 62, 6-(3-fluorophenoxy)-2-{1-oxa-4,9-diazaspiro[5.5]undecan-9-yl}pyrimidine-4-carbonitrile hydrochloride]
- pIC50 DAT [1]: 8.01
- pIC50 NET [2]: 6.36
- pIC50 SERT [3]: 5.83
- pIC50 hERG [4]: 6.5

Compound: Cl.Fc1cccc(Oc2cc(C3CC3)nc(N3CCC4(CC3)CNCCO4)n2)c1 [Example 65, 9-[4-cyclopropyl-6-(3-fluorophenoxy)pyrimidin-2-yl]-1-oxa-4,9-diazaspiro[5.5]undecane hydrochloride]
- pIC50 DAT [1]: 8.79
- pIC50 NET [2]: 7.08
- pIC50 SERT [3]: 5.44
- pIC50 hERG [4]: 5.7

Compound: COc1cc(Oc2cccc(F)c2)nc(N2CCC3(CC2)CNCCO3)n1.Cl [Example 66, 9-[4-(3-fluorophenoxy)-6-methoxypyrimidin-2-yl]-1-oxa-4,9 diazaspiro[5.5]undecane hydrochloride]
- pIC50 DAT [1]: 8.29
- pIC50 NET [2]: 6.52
- pIC50 SERT [3]: 5.27
- pIC50 hERG [4]: 5.7

Compound: O=C1COC2(CCN(c3nc(Oc4cccc(F)c4)cc(C(F)(F)F)n3)CC2)CN1 [Example 68, 9-[4-(3-fluorophenoxy)-6-(trifluoromethyl)pyrimidin-2-yl]-1-oxa-4,9-diazaspiro[5.5]undecan-3-one]
- pIC50 DAT [1]: 7.28
- pIC50 NET [2]: 5.39
- pIC50 SERT [3]: 4.45
- IC50 [4]: > 10 µM

Compound: Cl.Fc1cccc(Oc2cc(C(F)(F)F)nc(N3CCC4(CC3)CNCC(F)(F)O4)n2)c1 [Example 70, 2,2-difluoro-9-[4-(3-fluorophenoxy)-6-(trifluoromethyl)pyrimidin-2-yl]-1-oxa-4,9-diazaspiro[5.5]undecane hydrochloride]
- pIC50 DAT [1]: 6.65
- pIC50 NET [2]: 5.17
- IC50 [3]: > 100 µM
- pIC50 hERG [4]: 5.0

Compound: O=S1(=O)CCNCC12CCN(c1cc(F)c(F)cc1Oc1cccc(F)c1)CC2 [Example 71, 9-[4,5-difluoro-2-(3-fluorophenoxy)phenyl]-1λ^6-thia-4,9-diazaspiro[5.5]undecane-1,1-dione]
- pIC50 DAT [1]: 6.22
- pIC50 NET [2]: 4.82
- pIC50 SERT [3]: 4.55
- pIC50 hERG [4]: 5.1

Compound: O=S1(=O)CCNCC12CCN(c1nc(Oc3cccc(F)c3)cc(C(F)(F)F)n1)CC2 [Example 72, 9-[4-(3-fluorophenoxy)-6-(trifluoromethyl)pyrimidin-2-yl]-1λ^6-thia-4,9-diazaspiro[5.5]undecane-1,1-dione]
- pIC50 DAT [1]: 7.08
- pIC50 NET [2]: 4.92
- IC50 [3]: > 100 µM
- pIC50 hERG [4]: 5.5

Compound: Fc1cccc(Oc2cc(F)c(F)cc2N2CCC3(CCCNC3)CC2)c1 [Example 79, 9-[4,5-difluoro-2-(3-fluorophenoxy)phenyl]-2,9-diazaspiro[5.5]undecane]
- pIC50 DAT [1]: 7.86
- pIC50 NET [2]: 6.31
- pIC50 SERT [3]: 6.49
- pIC50 hERG [4]: 6.1

Compound: Fc1cccc(Oc2cc(F)c(F)cc2N2CCC3(CCNCC3)CC2)c1 [Example 82, 3-[4,5-difluoro-2-(3-fluorophenoxy)phenyl]-3,9-diazaspiro[5.5]undecane]
- pIC50 DAT [1]: 8.14
- pIC50 NET [2]: 6.10
- pIC50 SERT [3]: 8.00
- pIC50 hERG [4]: 6.0

Compound: Fc1cccc(Oc2cc(F)c(F)cc2N2CCC3(CNCCO3)C2)c1 (stereo not drawn) [Example 83, 2-[4,5-difluoro-2-(3-fluorophenoxy)phenyl]-6-oxa-2,9-diazaspiro[4.5]decane]
- pIC50 DAT [1]: 7.24
- pIC50 NET [2]: 6.76
- pIC50 SERT [3]: 6.40
- pIC50 hERG [4]: 6.2

Compound: Fc1cccc(Oc2cc(F)c(F)cc2N2CCC3(CCCNC3)C2)c1 (stereo not drawn) [Example 84, 2-[4,5-difluoro-2-(3-fluorophenoxy)phenyl]-2,7-diazaspiro[4.5]decane]
- pIC50 DAT [1]: 7.94
- pIC50 NET [2]: 6.76
- pIC50 SERT [3]: 6.33
- pIC50 hERG [4]: 6.6
